From ChEMBL document CHEMBL1201862, “PubChem BioAssay data set” (2004)
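Five compound concentrations were applied to cells in 96-well plates for 48 hours; endpoints were derived by simple linear interpolation of the resulting dose-response curve. GI50 = concentration required for 50% inhibition of growth.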 The source made the active and inactive calls. Cut-off read from the data, not from the text of the source: active = GI50 up to about 1.1 µM and inactive = higher.

What was measured:
Experiment in all cases: NCI anticancer screen, dose series, 48 h
RXF 393 = system: RXF 393
HOP-62 = system: HOP-62
DU-145 = system: DU-145
UACC-257 = system: UACC-257
UACC-62 = system: UACC-62
NCI-H460 = system: NCI-H460
SF-539 = system: SF-539
SK-OV-3 = system: SK-OV-3
HL-60 = system: HL-60
ACHN = system: ACHN
IGROV-1 = system: IGROV-1
K562 = system: K562
HT-29 = system: HT-29
SF-295 = system: SF-295
A549 = system: A549
MDA-MB-231 = system: MDA-MB-231
SK-MEL-2 = system: SK-MEL-2
TK-10 = system: TK-10
OVCAR-5 = system: OVCAR-5
SNB-19 = system: SNB-19
NCI-H226 = system: NCI-H226
U-251 = system: U-251
LOX IMVI = system: LOX IMVI
MOLT-4 = system: MOLT-4
UO-31 = system: UO-31
M14 = system: M14
CCRF-CEM = system: CCRF-CEM
SF-268 = system: SF-268
CAKI-1 = system: CAKI-1
T47D = system: T47D
EKVX = system: EKVX
OVCAR-4 = system: OVCAR-4
SK-MEL-28 = system: SK-MEL-28
Malme-3M = system: Malme-3M
786-0 = system: 786-0
NCI/ADR-RES = system: NCI/ADR-RES
HCC 2998 = system: HCC 2998
COLO 205 = system: COLO 205
SK-MEL-5 = system: SK-MEL-5
SR = system: SR
SNB-75 = system: SNB-75
MDA-MB-435 = system: MDA-MB-435
SN12C = system: SN12C
KM12 = system: KM12
RPMI-8226 = system: RPMI-8226
NCI-H23 = system: NCI-H23
OVCAR-3 = system: OVCAR-3
A498 = system: A498
BT-549 = system: BT-549
MCF7 = system: MCF7
HCT-15 = system: HCT-15
MDA-N = system: MDA-N
HOP-92 = system: HOP-92
HCT-116 = system: HCT-116
SW-620 = system: SW-620
PC-3 = system: PC-3
NCI-H522 = system: NCI-H522
OVCAR-8 = system: OVCAR-8
Hs-578T = system: Hs-578T

## COc1ccc2c(c1)NC1(CCN(CCCC(=O)c3ccc(F)cc3)CC1)N=N2
RXF 393
  GI50: 16.6 µM (inactive)
HOP-62
  GI50: 24.7 µM (inactive)
DU-145
  GI50: 18.5 µM (inactive)
UACC-257
  GI50: 17.6 µM (inactive)
UACC-62
  GI50: 20.9 µM (inactive)
NCI-H460
  GI50: 26.1 µM (inactive)
SF-539
  GI50: 19.8 µM (inactive)
SK-OV-3
  GI50: 33.4 µM (inactive)
HL-60
  GI50: 15.2 µM (inactive)
ACHN
  GI50: 27.5 µM (inactive)
IGROV-1
  GI50: 21 µM (inactive)
K562
  GI50: 19.4 µM (inactive)
HT-29
  GI50: 24.6 µM (inactive)
SF-295
  GI50: 19.6 µM (inactive)
A549
  GI50: 36.4 µM (inactive)
MDA-MB-231
  GI50: 22.5 µM (inactive)
SK-MEL-2
  GI50: 17.9 µM (inactive)
TK-10
  GI50: 20.7 µM (inactive)
OVCAR-5
  GI50: 23.5 µM (inactive)
SNB-19
  GI50: 35.3 µM (inactive)
NCI-H226
  GI50: 22 µM (inactive)
U-251
  GI50: 19.2 µM (inactive)
LOX IMVI
  GI50: 18.7 µM (inactive)
MOLT-4
  GI50: 15.3 µM (inactive)
UO-31
  GI50: 18 µM (inactive)
M14
  GI50: 13.7 µM (inactive)
CCRF-CEM
  GI50: 20 µM (inactive)
SF-268
  GI50: 41.8 µM (inactive)
CAKI-1
  GI50: 29.6 µM (inactive)
T47D
  GI50: 22.2 µM (inactive)
EKVX
  GI50: 32.2 µM (inactive)
OVCAR-4
  GI50: 27.4 µM (inactive)
SK-MEL-28
  GI50: 20 µM (inactive)
Malme-3M
  GI50: 15.2 µM (inactive)
786-0
  GI50: 19.3 µM (inactive)
NCI/ADR-RES
  GI50: 24.4 µM (inactive)
HCC 2998
  GI50: 14.8 µM (inactive)
COLO 205
  GI50: 14.5 µM (inactive)
SK-MEL-5
  GI50: 12.6 µM (inactive)
SR
  GI50: 15.7 µM (inactive)
SNB-75
  GI50: 15.1 µM (inactive)
MDA-MB-435
  GI50: 15.8 µM (inactive)
SN12C
  GI50: 21 µM (inactive)
KM12
  GI50: 20.1 µM (inactive)
RPMI-8226
  GI50: 16.6 µM (inactive)
NCI-H23
  GI50: 25.8 µM (inactive)
OVCAR-3
  GI50: 23.3 µM (inactive)
A498
  GI50: 28.4 µM (inactive)
BT-549
  GI50: 26.4 µM (inactive)
MCF7
  GI50: 17.4 µM (inactive)
HCT-15
  GI50: 20.8 µM
MDA-N
  GI50: 17.7 µM (inactive)
HOP-92
  GI50: 29.9 µM (inactive)
HCT-116
  GI50: 17.1 µM (inactive)
SW-620
  GI50: 23.8 µM (inactive)
PC-3
  GI50: 23.1 µM (inactive)
NCI-H522
  GI50: 16.9 µM (inactive)

## Oc1ccc(/C=C/c2cc(O)cc(O)c2)cc1 [RESVERATROL]
RXF 393
  GI50: 40.9 µM (inactive)
HOP-62
  GI50: 92 µM (inactive)
DU-145
  GI50: 12.1 µM (inactive)
UACC-257
  GI50: > 100 µM (inactive)
UACC-62
  GI50: 41.2 µM (inactive)
NCI-H460
  GI50: 42.1 µM (inactive)
SF-539
  GI50: 29.6 µM (inactive)
SK-OV-3
  GI50: 79.3 µM (inactive)
HL-60
  GI50: 20.4 µM (inactive)
ACHN
  GI50: 27 µM (inactive)
HT-29
  GI50: 24.3 µM (inactive)
SF-295
  GI50: 44 µM (inactive)
A549
  GI50: 51.6 µM (inactive)
MDA-MB-231
  GI50: > 100 µM (inactive)
SK-MEL-2
  GI50: 86.3 µM (inactive)
TK-10
  GI50: > 100 µM (inactive)
OVCAR-5
  GI50: > 100 µM (inactive)
SNB-19
  GI50: > 100 µM (inactive)
NCI-H226
  GI50: 39.9 µM (inactive)
U-251
  GI50: > 100 µM (inactive)
MOLT-4
  GI50: 7.23 µM (inactive)
UO-31
  GI50: 35.7 µM (inactive)
M14
  GI50: 49.8 µM (inactive)
SF-268
  GI50: > 100 µM (inactive)
OVCAR-8
  GI50: 48.8 µM (inactive)
CAKI-1
  GI50: 42.2 µM (inactive)
T47D
  GI50: 8.65 µM (inactive)
EKVX
  GI50: 81.5 µM (inactive)
OVCAR-4
  GI50: > 100 µM (inactive)
SK-MEL-28
  GI50: > 100 µM (inactive)
NCI/ADR-RES
  GI50: 19.6 µM (inactive)
HCC 2998
  GI50: 62.4 µM (inactive)
SR
  GI50: 53.1 µM (inactive)
SNB-75
  GI50: 95.1 µM (inactive)
MDA-MB-435
  GI50: 70.1 µM (inactive)
SN12C
  GI50: 42.8 µM (inactive)
KM12
  GI50: 31.9 µM (inactive)
RPMI-8226
  GI50: 8.63 µM (inactive)
NCI-H23
  GI50: 46 µM (inactive)
OVCAR-3
  GI50: > 100 µM (inactive)
A498
  GI50: 24.3 µM (inactive)
BT-549
  GI50: > 100 µM (inactive)
MCF7
  GI50: 67 µM (inactive)
HCT-15
  GI50: > 100 µM
MDA-N
  GI50: 50.7 µM (inactive)
HOP-92
  GI50: > 100 µM (inactive)
SW-620
  GI50: > 100 µM (inactive)
PC-3
  GI50: 42.4 µM (inactive)

## CC(=O)/C=C1\Nc2ccccc2N\C1=C/C(C)=O
RXF 393
  GI50: 19.1 µM (inactive)
HOP-62
  GI50: 27.3 µM (inactive)
DU-145
  GI50: 30 µM (inactive)
UACC-257
  GI50: 20.3 µM (inactive)
UACC-62
  GI50: 20.1 µM (inactive)
NCI-H460
  GI50: 16.5 µM (inactive)
SF-539
  GI50: 30.3 µM (inactive)
SK-OV-3
  GI50: 30.6 µM (inactive)
HL-60
  GI50: 23.9 µM (inactive)
ACHN
  GI50: 22.6 µM (inactive)
IGROV-1
  GI50: 18.8 µM (inactive)
K562
  GI50: 26.6 µM (inactive)
HT-29
  GI50: 20.1 µM (inactive)
SF-295
  GI50: 26.5 µM (inactive)
A549
  GI50: 21.5 µM (inactive)
MDA-MB-231
  GI50: 22 µM (inactive)
SK-MEL-2
  GI50: 20.6 µM (inactive)
TK-10
  GI50: 19.4 µM (inactive)
OVCAR-5
  GI50: 28.8 µM (inactive)
SNB-19
  GI50: 38.5 µM (inactive)
NCI-H226
  GI50: 21.4 µM (inactive)
U-251
  GI50: 23.8 µM (inactive)
LOX IMVI
  GI50: 24.5 µM (inactive)
MOLT-4
  GI50: 14.5 µM (inactive)
UO-31
  GI50: 36.6 µM (inactive)
M14
  GI50: 21.6 µM (inactive)
CCRF-CEM
  GI50: 17.2 µM (inactive)
SF-268
  GI50: 23.5 µM (inactive)
OVCAR-8
  GI50: 24.7 µM (inactive)
CAKI-1
  GI50: 60.8 µM (inactive)
T47D
  GI50: 19.5 µM (inactive)
EKVX
  GI50: 27.5 µM (inactive)
OVCAR-4
  GI50: 19 µM (inactive)
SK-MEL-28
  GI50: 41.7 µM (inactive)
Malme-3M
  GI50: 23 µM (inactive)
786-0
  GI50: 18.5 µM (inactive)
NCI/ADR-RES
  GI50: 29 µM (inactive)
COLO 205
  GI50: 23.2 µM (inactive)
SK-MEL-5
  GI50: 16.8 µM (inactive)
SR
  GI50: 25.1 µM (inactive)
SNB-75
  GI50: 26.9 µM (inactive)
MDA-MB-435
  GI50: 26.4 µM (inactive)
SN12C
  GI50: 25.7 µM (inactive)
KM12
  GI50: 24 µM (inactive)
RPMI-8226
  GI50: 19.5 µM (inactive)
NCI-H23
  GI50: 31.2 µM (inactive)
OVCAR-3
  GI50: 17.5 µM (inactive)
A498
  GI50: 27.2 µM (inactive)
BT-549
  GI50: 35 µM (inactive)
HCT-15
  GI50: 24.3 µM
Hs-578T
  GI50: 29.9 µM (inactive)
MDA-N
  GI50: 29.9 µM (inactive)
HOP-92
  GI50: 24.4 µM (inactive)
HCT-116
  GI50: 16.9 µM (inactive)
SW-620
  GI50: 35.7 µM (inactive)
PC-3
  GI50: 37.9 µM (inactive)
NCI-H522
  GI50: 11.1 µM (inactive)
